Assay results published in patent US20110230477A1, “COMPOUNDS, PHARMACEUTICAL COMPOSITION AND METHODS FOR USE IN TREATING METABOLIC DISORDERS” (Euroscreen S.A., priority 2008, published 2011).

Target: T1, human GPR43 receptor (hGPR43) (Homo sapiens, UniProt O15552)
T1 construct: expressed in transfected cells
T1 sequence (O15552 1-330): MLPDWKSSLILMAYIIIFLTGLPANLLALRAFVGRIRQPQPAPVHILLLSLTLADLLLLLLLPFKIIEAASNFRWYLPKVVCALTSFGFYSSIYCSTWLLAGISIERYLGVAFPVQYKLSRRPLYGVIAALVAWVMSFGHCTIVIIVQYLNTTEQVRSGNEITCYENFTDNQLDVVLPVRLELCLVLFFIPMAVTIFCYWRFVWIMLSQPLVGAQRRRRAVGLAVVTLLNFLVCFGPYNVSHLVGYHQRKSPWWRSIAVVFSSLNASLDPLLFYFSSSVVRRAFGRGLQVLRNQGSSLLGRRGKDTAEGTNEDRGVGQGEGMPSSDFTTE
Assay: GTPγS binding assay (SPA method)
Format: biochemical
Conditions: membranes expressing hGPR43; assay performed in the presence of SCFA; read-out: EC50 (nM) in GTPγ35S assay
Source text: The following assay can be used for determination of GPR43 activation. When a GPCR is in its active state, either as a result of ligand binding or constitutive activation, the receptor couples to a G protein and stimulates the release of GDP and subsequent binding of GTP to the G protein. The alpha subunit of the G protein-receptor complex acts as a GTPase and slowly hydrolyses the GTP to GDP, at which point the receptor normally is deactivated. Activated receptors continue to exchange GDP for GTP. […] The assay uses the ability of GPCR to stimulate [^35S]GTPγS binding to membranes expressing the relevant receptors. The assay can, therefore, be used in the direct identification method to screen candidate compounds to endogenous or not endogenous GPCR.
Membrane extracts were prepared from cells expressing the human GPR43 receptor (hGPR43) as follows: the medium was aspirated and the cells were scraped from the plates in Ca^++ and Mg^++-free Phosphate-buffered saline (PBS). The cells were then centrifuged for 3 min at 1500 g and the pellets were resuspended in buffer A (15 mM Tris-HCl pH 7.5, 2 mM MgCl2, 0.3 mM EDTA, 1 mM EGTA) and homogenized in a glass homogenizer. […] Protein content was assayed by the Folin method.
The assay was performed in the presence of SCFA, and was used to determine the activity of the compounds of the invention.
The [^35S]GTPγS assay was incubated in 20 mM HEPES pH7.4, 100 mM NaCl, 10 μg/ml saponin, 30 mM of MgCl2, 10 μM of GDP, 5 μg membrane-expressing hGPR43, 250 μg of wheatgerm agglutinin beads (Amersham, ref: RPNQ001), a range concentration of compounds (from 30 μM to 1 nM) in a final volume of 100 μl for 30 min at room temperature. The SCFA propionate was used at 1 mM final concentration as positive control. The plates were then centrifuged for 10 minutes at 2000 rpm, incubated for 2 hours at room temperature and counted for 1 min in a scintillation counter (TopCount, PerkinElmer).

Row | EC50 | Structure (SMILES)
1 | 113 nM | O=C(Nc1nc(-c2ccccc2Cl)cs1)[C@H]1CC=CC[C@H]1C(=O)O (relative stereo) [Compound 98, cis-6-(4-(2-chlorophenyl)thiazol-2-ylcarbamoyl)cyclohex-3-enecarboxylic acid]
2 | 142 nM | CN(C(=O)[C@H]1CC=CC[C@H]1C(=O)O)c1nc(-c2ccccc2Cl)cs1 (relative stereo) [Compound 100, cis-6-((4-(2-chlorophenyl)thiazol-2-yl)(methyl)carbamoyl)cyclohex-3-enecarboxylic acid]
3 | 67 nM | CN(C(=O)[C@H]1CCCC[C@H]1C(=O)O)c1nc(-c2ccccc2Cl)cs1 (relative stereo) [Compound 101, cis-2-((4-(2-chlorophenyl)thiazol-2-yl)(methyl)carbamoyl)cyclohexanecarboxylic acid]
4 | 322 nM | CC(C)C[C@H](CC(=O)O)C(=O)Nc1nc(-c2ccccc2Cl)cs1 [Compound 19, (R)-3-(4-(2-chlorophenyl)thiazol-2-ylcarbamoyl)-5-methylhexanoic acid]
5 | 96 nM | O=C(O)C[C@@H](Cc1ccccc1)C(=O)Nc1nc(-c2ccccc2Cl)c(F)s1 [Compound 20, (R)-3-benzyl-4-(4-(2-chlorophenyl)-5-fluorothiazol-2-ylamino)-4-oxobutanoic acid]
6 | 260 nM | CN(C(=O)[C@@H](CC(=O)O)Cc1ccccc1)c1nc(-c2ccccc2Cl)c(Cl)s1 [Compound 21, (R)-3-benzyl-4-((5-chloro-4-(2-chlorophenyl)thiazol-2-yl)(methyl)amino)-4-oxobutanoic acid]
7 | 365 nM | C=CCN(C(=O)[C@@H](CC(=O)O)Cc1ccccc1)c1nc(-c2ccccc2Cl)cs1 [Compound 22, (R)-4-(allyl(4-(2-chlorophenyl)thiazol-2-yl)amino)-3-benzyl-4-oxobutanoic acid]
8 | 327 nM | COC(=O)CN(C(=O)[C@@H](CC(=O)O)Cc1ccccc1)c1nc(-c2ccccc2Cl)cs1 [Compound 23, (R)-3-benzyl-4-((4-(2-chlorophenyl)thiazol-2-yl)(2-methoxy-2-oxoethyl)amino)-4-oxobutanoic acid]
9 | 95 nM | CN(C(=O)[C@@H](CC(=O)O)Cc1ccccc1)c1nc(-c2ccccc2Cl)c(F)s1 [Compound 60, (R)-3-benzyl-4-((4-(2-chlorophenyl)-5-fluorothiazol-2-yl)(methyl)amino)-4-oxobutanoic acid]
10 | 98 nM | CN(C(=O)[C@@H](CC(=O)O)Cc1ccccc1)c1nc(-c2ccccc2Cl)ns1 [Compound 83, (R)-3-benzyl-4-((3-(2-chlorophenyl)-1,2,4-thiadiazol-5-yl)(methyl)amino)-4-oxobutanoic acid]
11 | 37 nM | CN(C(=O)[C@@H](CC(=O)O)CC1CCCCC1)c1nc(-c2ccccc2Cl)cs1 [Compound 89, (R)-4-((4-(2-chlorophenyl)thiazol-2-yl)(methyl)amino)-3-(cyclohexylmethyl)-4-oxobutanoic acid]
12 | 88 nM | CC(C)C[C@H](CC(=O)O)C(=O)N(C)c1nc(-c2ccccc2Cl)cs1 [Compound 90, (R)-3-((4-(2-chlorophenyl)thiazol-2-yl)(methyl)carbamoyl)-5-methylhexanoic acid]
13 | 354 nM | CN(C(=O)[C@@H](CC(=O)O)Cc1ccccc1)c1nc(-c2ccccc2C#N)cs1 [Compound 91, (R)-3-benzyl-4-((4-(2-cyanophenyl)thiazol-2-yl)(methyl)amino)-4-oxobutanoic acid]
14 | 249 nM | O=C(O)C[C@@H](C(=O)Nc1nc(-c2ccccc2Cl)cs1)c1ccccc1 [Compound 92, (R)-4-(4-(2-chlorophenyl)thiazol-2-ylamino)-4-oxo-3-phenylbutanoic]
15 | 493 nM | O=C(O)C[C@@H](Cc1cccc(F)c1)C(=O)Nc1nc(-c2ccccc2Cl)cs1 [Compound 93, (R)-4-(4-(2-chlorophenyl)thiazol-2-ylamino)-3-(3-fluorobenzyl)-4-oxobutanoic acid]
16 | 200 nM | CC(C)[C@H](CC(=O)O)C(=O)N(C)c1nc(-c2ccccc2Cl)cs1 [Compound 94, (S)-3-((4-(2-chlorophenyl)thiazol-2-yl)(methyl)carbamoyl)-4-methylpentanoic acid]
17 | 249 nM | CCN(C(=O)[C@@H](CC(=O)O)Cc1ccccc1)c1nc(-c2ccccc2Cl)cs1 [Compound 96, (R)-3-benzyl-4-((4-(2-chlorophenyl)thiazol-2-yl)(ethyl)amino)-4-oxobutanoic acid]
18 | 567 nM | COc1ccc(CC(CC(=O)O)C(=O)N(C)c2nc(-c3ccccc3Cl)cs2)cc1 (stereo not drawn) [Compound 99, 4-((4-(2-chlorophenyl)thiazol-2-yl)(methyl)amino)-3-(4-methoxybenzyl)-4-oxobutanoic acid]

The next lines start with the compound.

Row | Structure (SMILES) | EC50
19 | O=C(O)C1CC=CCC1C(=O)Nc1nc(-c2ccccc2Cl)cs1 (stereo not drawn) [Compound 1, 6-(4-(2-chlorophenyl)thiazol-2-ylcarbamoyl)cyclohex-3-enecarboxylic acid] | 109 nM
20 | O=C(O)C[C@@H](Cc1ccccc1)C(=O)Nc1nc(-c2ccccc2Cl)cs1 [Compound 2, (R)-3-benzyl-4-(4-(2-chlorophenyl)thiazol-2-ylamino)-4-oxobutanoic acid] | 273 nM
21 | O=C(O)C[C@@H](Cc1ccccc1)C(=O)Nc1nc(-c2ccc(Cl)cc2Cl)cs1 [Compound 3, (R)-3-benzyl-4-(4-(2,4-dichlorophenyl)thiazol-2-ylamino)-4-oxobutanoic acid] | 653 nM
22 | O=C(O)C[C@@H](Cc1ccccc1)C(=O)Nc1nc(-c2ccccc2F)cs1 [Compound 4, (R)-3-benzyl-4-(4-(2-fluorophenyl)thiazol-2-ylamino)-4-oxobutanoic acid] | 759 nM
23 | O=C(O)C[C@@H](Cc1ccccc1)C(=O)Nc1nc(-c2ccc(Cl)c(Cl)c2)cs1 [Compound 5, (R)-3-benzyl-4-(4-(3,4-dichlorophenyl)thiazol-2-ylamino)-4-oxobutanoic acid] | 292 nM
24 | N#Cc1ccc(-c2csc(NC(=O)[C@@H](CC(=O)O)Cc3ccccc3)n2)cc1 [Compound 8, (R)-3-benzyl-4-(4-(4-cyanophenyl)thiazol-2-ylamino)-4-oxobutanoic acid] | 563 nM
25 | O=C(O)C[C@H](C(=O)Nc1nc(-c2ccccc2Cl)cs1)c1ccccc1 [Compound 9, (S)-4-(4-(2-chlorophenyl)thiazol-2-ylamino)-4-oxo-3-phenylbutanoic acid] | 60 nM
26 | O=C(O)/C=C\C(=O)Nc1nc(-c2ccccc2Cl)cs1 [Compound 10, (Z)-4-(4-(2-chlorophenyl)thiazol-2-ylamino)-4-oxobut-2-enoic acid] | 405 nM
27 | O=C(O)C[C@@H](Cc1ccccc1)C(=O)Nc1nc(-c2ccccc2)ns1 [Compound 11, (R)-3-benzyl-4-oxo-4-(3-phenyl-1,2,4-thiadiazol-5-ylamino)butanoic acid] | 680 nM
28 | O=C(O)C[C@@H](Cc1ccccc1)C(=O)Nc1nc(-c2cccc(Cl)c2)cs1 [Compound 12, (R)-3-benzyl-4-(4-(3-chlorophenyl)thiazol-2-ylamino)-4-oxobutanoic acid] | 424 nM
29 | O=C(O)C[C@@H](Cc1ccccc1)C(=O)Nc1nc(-c2cccc(C(F)(F)F)c2)cs1 [Compound 13, (R)-3-benzyl-4-oxo-4-(4-(3-(trifluoromethyl)phenyl)thiazol-2-ylamino)butanoic acid] | 875 nM
30 | O=C(O)C[C@@H](Cc1ccccc1)C(=O)Nc1ccc(-c2ccccc2Cl)cn1 [Compound 15, (R)-3-benzyl-4-(5-(2-chlorophenyl)pyridin-2-ylamino)-4-oxobutanoic acid] | 426 nM
31 | CCCC[C@H](CC(=O)O)C(=O)Nc1nc(-c2ccccc2Cl)cs1 [Compound 16, (R)-3-(4-(2-chlorophenyl)thiazol-2-ylcarbamoyl)heptanoic acid] | 389 nM
32 | O=C(O)C[C@@H](Cc1ccc(F)cc1)C(=O)Nc1nc(-c2ccccc2Cl)cs1 [Compound 17, (R)-4-(4-(2-chlorophenyl)thiazol-2-ylamino)-3-(4-fluorobenzyl)-4-oxobutanoic acid] | 643 nM
33 | O=C(O)C[C@@H](CC1CCCCC1)C(=O)Nc1nc(-c2ccccc2Cl)cs1 [Compound 18, (R)-4-(4-(2-chlorophenyl)thiazol-2-ylamino)-3-(cyclohexylmethyl)-4-oxobutanoic acid] | 104 nM
